Values of other authors as cited in US20120148512A1, “Method for Increasing the Sun Protection Factor of a Cosmetic and/or Dermatological Preparation” (BASF SE, priority 2006, published 2012).

Row | Structure (SMILES) | absorption retained in the absorption maximum (following sun-simulated irradiation (5 and 10 MED)) | photostability (filter substance on its own)
1 | O=S(=O)(O)c1ccc2nc(-c3ccccc3)[nH]c2c1 [2-phenylbenzimidazole-5-sulfonic acid] | more than 90% | –
2 | COc1ccc(C(=O)CC(=O)c2ccc(C(C)(C)C)cc2)cc1 [BMDBM, 4-(tert-butyl)-4′-methoxydibenzoylmethane] | – | not photostable
